Measurements from US9283160B2, “Stabilization of cosmetic compositions” (BASF SE, priority 2009, dated 2016).

Test: Photodegradation of UV absorber combinations, plate-test (recovery after UV irradiation)
Format: physicochemical
Conditions: 0-50 MED UV; for Photostabilization of components (e) and (f) after irradiation (summary of Table 5): in presence of piperazine bi-aminobenzophenone
Protocol: For the determination of photodegradation the so-called “plate-test” is employed: • 2 μl/cm^2 of the formulations are spread on quartz plates (sand-blasted surface of 2.8 cm^2), and rinsed off the plates after 0, 5, 10, 20, and 50 MED of UV irradiation using an Atlas CPS+ solar simulator.
The substances tagged with an asterix (*) are those the recovery percentages refer to. The percentage of component (a) refers to the active.
The experimental error in terms of the standard deviation is in the range of ±3%.

| Structure (SMILES) | Photostabilization of components (e) and (f) after irradiation (summary of Table 5) | Photostabilization of component (b) after irradiation (summary of Table 4) (combination with piperazine bi-aminobenzophenone, bis-ethylhexyloxyphenol methoxyphenyl triazine added) | Photostabilization of component (b) after irradiation (summary of Table 3) (combination with piperazine bi-aminobenzophenone, octocrylene added) |
| --- | --- | --- | --- |
| CCCCC(CC)COC(=O)c1ccc(Nc2nc(Nc3ccc(C(=O)NC(C)(C)C)cc3)nc(Nc3ccc(C(=O)OCC(CC)CCCC)cc3)n2)cc1 (stereo not shown) [di-octyl butamido triazone, Benzoic acid, 4,4′-[[6-[[4-[[(1,1-dimethylethyl)amino]carbonyl]-phenyl]amino]1,3,5-triazine-2,4-diyl]diimino]bis-, bis(2-ethyl-hexyl)ester] | photostabilized in the presence of piperazine bi-aminobenzophenone | – | – |
| CCCCC(CC)COC(=O)C=Cc1ccc(OC)cc1 (stereo not shown) [ethylhexyl methoxycinnamate, 2-ethylhexyl 4-methoxycinnamate] | – | can be stabilized by addition of bis-ethylhexyloxyphenol methoxyphenyl triazine | can be stabilized by addition of octocrylene |
| CCCCC(CC)COC(=O)c1ccc(Nc2nc(Nc3ccc(C(=O)OCC(CC)CCCC)cc3)nc(Nc3ccc(C(=O)OCC(CC)CCCC)cc3)n2)cc1 (stereo not shown) [ethylhexyl triazone, Ethylhexyl triazone] | photostabilized in the presence of piperazine bi-aminobenzophenone | – | – |
